± gives the standard deviation of the averaged measurements.
Experiments:
Test in all cases: level (log10 ratio to DMSO vehicle control); higher = higher biomarker level / cell amount than vehicle control
Conditions in all cases: in DMSO
[1] = compound: O=C(O)C(F)(F)C(F)(F)C(F)(F)C(=O)O [Hexafluoroglutaric acid]
Method: (§1)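 BioMAP Diversity Plus panel of 12 human primary cell co-culture systems (3C, 4H, LPS, SAg, BT, BF4T, BE3C, CASM3C, HDF3CGF, KF3CT, MyoF, Mphg). Compounds were added 1 h before stimulation and left for 24 h (MyoF 48 h; BT 72 h for soluble read-outs or 6 d for IgG). Biomarkers were read by ELISA, cytotoxicity by SRB, PBMC viability and proliferation by Alamar Blue. Each well value was divided by the mean of 8 DMSO control wells on the same plate and log10 transformed; duplicate blinded samples were tested at 4 concentrations.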

[2] = compound: O=C(O)C(F)(F)C(F)(F)C(F)(F)C(F)(F)C(F)(F)C(F)(F)C(F)(F)C(F)(F)C(F)(F)C(F)(F)C(F)(F)C(F)(F)F [Perfluorotridecanoic acid]
Method: as §1

[3] = compound: O=C(O)CCC(F)(F)C(F)(F)C(F)(F)F [3:3 Fluorotelomer carboxylic acid]
Method: as §1

[4] = compound: O=P(O)(O)CCC(F)(F)C(F)(F)C(F)(F)C(F)(F)C(F)(F)C(F)(F)C(F)(F)C(F)(F)F [((Perfluorooctyl)ethyl)phosphonic acid]
Method: as §1

[5] = compound: O=S(=O)(O)C(F)(F)C(F)(F)C(F)(F)C(F)(F)C(F)(F)C(F)(F)C(F)(F)C(F)(F)F [Potassium perfluorooctanesulfonate]
Method: as §1

[6] = compound: OCC(F)(F)C(F)(F)C(F)(F)C(F)(F)C(F)(F)C(F)F [1H,1H,7H-Dodecafluoro-1-heptanol]
Method: as §1

Row | Test System | level (log10) ([1]; 6700 nM) | level (log10) ([1]; 20000 nM) | level (log10) ([1]; 60000 nM) | level (log10) ([2]; 1500 nM) | level (log10) ([2]; 4400 nM) | level (log10) ([2]; 13000 nM) | level (log10) ([2]; 40000 nM) | level (log10) ([3]; 6700 nM) | level (log10) ([3]; 20000 nM) | level (log10) ([3]; 60000 nM) | level (log10) ([4]; 6700 nM) | level (log10) ([4]; 20000 nM) | level (log10) ([4]; 60000 nM) | level (log10) ([5]; 6700 nM) | level (log10) ([5]; 20000 nM) | level (log10) ([5]; 60000 nM) | level (log10) ([6]; 6700 nM) | level (log10) ([6]; 20000 nM) | level (log10) ([6]; 60000 nM)
1 | MyoF:Decorin | -0.0145 ± 0.0078 | -0.0225 ± 0.0064 | -0.031 ± 0.0099 | 0.046 ± 0.05 | 0.06 ± 0.035 | 0.047 ± 0.047 | 0.0365 ± 0.039 | -0.024 ± 0.0028 | -0.0115 ± 0.015 | -0.004 ± 0.024 | 0.0185 ± 0.00071 | 0.028 ± 0.0099 | 0.0305 ± 0.046 | 0.0305 ± 0.019 | 0.0305 ± 0.013 | 0.0565 ± 0.013 | -0.0105 ± 0.00071 | -0.0005 ± 0.036 | -0.017 ± 0.021
2 | HDF3CGF:MMP-1 | 0.0195 ± 0.0092 | 0.002 ± 0.02 | -0.0045 ± 0.021 | -0.0005 ± 0.035 | -0.061 ± 0.042 | -0.063 ± 0.044 | -0.068 ± 0.069 | 0.0045 ± 0.037 | 0.009 ± 0.017 | 0.0045 ± 0.015 | -0.019 ± 0.011 | -0.021 ± 0.0057 | -0.05 ± 0.0042 | -0.0075 ± 0.011 | -0.0155 ± 0.0092 | -0.0025 ± 0.005 | 0.0115 ± 0.015 | 0.0105 ± 0.0021 | 0.012 ± 0.02
3 | KF3CT:uPA | -0.019 ± 0.024 | -0.0055 ± 0.0035 | -0.011 ± 0.011 | 0.0005 ± 0.018 | -0.003 ± 0.011 | 0.0035 ± 0.015 | -0.0035 ± 0.011 | -0.01 ± 0.017 | -0.0165 ± 0.0092 | -0.009 ± 0.0014 | 0.0065 ± 0.018 | 0.003 ± 0.016 | 0.0025 ± 0.0092 | -0.011 ± 0.0099 | -0.004 ± 0.011 | -0.027 | 0.001 ± 0.011 | -0.0155 ± 0.013 | 0.0035 ± 0.015
4 | CASM3C:Serum Amyloid A | 0.0395 ± 0.049 | 0.027 ± 0.018 | 0.0085 ± 0.019 | 0.0495 ± 0.086 | 0.074 ± 0.052 | 0.181 ± 0.075 | 0.157 ± 0.11 | -0.0055 ± 0.029 | -0.004 ± 0.0042 | -0.0005 ± 0.032 | -0.0065 ± 0.044 | -0.0225 ± 0.015 | 0.083 ± 0.055 | 0.0085 ± 0.026 | 0.001 ± 0.03 | 0.0125 ± 0.057 | -0.019 ± 0.045 | -0.01 ± 0.031 | -0.0275 ± 0.037
5 | 3C:CD141/Thrombomodulin | -0.018 ± 0.017 | -0.014 ± 0.011 | -0.034 ± 0.0099 | -0.0075 ± 0.059 | -0.0355 ± 0.079 | -0.042 ± 0.065 | -0.0505 ± 0.071 | -0.0105 ± 0.011 | -0.018 ± 0.047 | -0.006 ± 0.013 | -0.0115 ± 0.00071 | -0.0115 ± 0.0078 | 0.013 ± 0.016 | 0.007 ± 0.018 | -0.0055 ± 0.033 | 0.041 ± 0.0071 | -0.007 ± 0.057 | 0.0065 ± 0.044 | -0.017 ± 0.058
6 | BE3C:SRB | 0.0035 ± 0.0035 | -0.005 | 0.0125 ± 0.012 | 0.0085 ± 0.019 | -0.0035 ± 0.0021 | -0.0055 ± 0.0078 | 0.0035 ± 0.0021 | -0.0065 ± 0.0064 | -0.0065 ± 0.005 | 0.001 ± 0.013 | -0.004 | -0.011 ± 0.0085 | 0.0015 ± 0.015 | -0.0075 ± 0.0021 | -0.245 ± 0.034 | -0.306 ± 0.033 | 0.001 ± 0.0071 | -0.009 ± 0.011 | 0.0025 ± 0.00071
7 | BE3C:MMP-9 | -0.0035 ± 0.023 | -0.0025 ± 0.032 | 0.0145 ± 0.042 | -0.0105 ± 0.0035 | 0.0005 ± 0.023 | -0.0065 ± 0.0035 | -0.0235 ± 0.00071 | -0.0025 ± 0.022 | 0.0085 ± 0.0078 | -0.0085 ± 0.025 | -0.0155 ± 0.026 | -0.006 ± 0.044 | 0.014 ± 0.016 | -0.0035 ± 0.012 | -0.13 ± 0.013 | -0.126 ± 0.024 | -0.009 ± 0.0028 | -0.0105 ± 0.00071 | -0.02 ± 0.0028
8 | HDF3CGF:CXCL11/I-TAC | 0.014 ± 0.0014 | -0.011 ± 0.072 | -0.0115 ± 0.061 | -0.072 ± 0.014 | -0.074 ± 0.055 | -0.0805 ± 0.077 | -0.18 ± 0.034 | 0.0025 ± 0.0092 | -0.0065 ± 0.0078 | 0.012 ± 0.035 | 0.084 ± 0.0014 | 0.064 ± 0.018 | -0.0155 ± 0.035 | 0.0005 ± 0.019 | -0.0375 ± 0.015 | -0.135 ± 0.0028 | 0.011 ± 0.0028 | 0 ± 0.018 | -0.0015 ± 0.011

Source: the supplement of paper PMC10331698
